Patent US11274091B2 (Dizal (Jiangsu) Pharmaceutical Co., Ltd., priority 2018, dated 2022)

Legend:
[1] = target: human TRPC3 ion channel (Homo sapiens (Human), UniProt Q13507); test: Inhibition of TRPC3 FLIPR Assay (membrane potential dye, OAG challenge); assay type: cell-based; details: TRPC3 transfected AD293 cells, OAG at EC80; most potent isolated isomer; mean of minimum 2 experiments
Description: (§1) TRPC3 and TRPC6 channel opening causes an influx of predominantly calcium and sodium cations that result in a change in the electrical potential across the cell membrane. This change in membrane potential can be monitored using membrane potential dyes in the following FLIPR™ (Fluorescent Imaging Plate Reader) assays.
AD293 cells were transfected using the PLVX-puro lentivirus vector containing the coding sequence of the human TRPC3 ion channel. Puromycin-resistant cells were selected by treating with […] puromycin for two weeks. Monoclonal cells were obtained by limiting dilution and compared for their response to OAG in a membrane potential assay. The cells were grown in DMEM+10% fetal bovine serum (FBS)+1 μg/mL puromycin as culture medium.
TRPC3 cells were plated at 9K/well into 384-well polystyrene plates. Cells were grown for 24 h at 37° C. plus 5% CO2 after which media was aspirated using a Tecan plate washer and replaced with 40 μL of dye loading buffer (130 mM NaCl, 5 mM KCl, 0.15 mM CaCl2, 1 mM MgCl2, 20 mM HEPES ((4-(2-hydroxyethyl)-1-piperazineethanesulfonic acid)), 5 mM NaHCO3). For TRPC3 a final concentration of 0.5× membrane potential dye (Molecular Devices Membrane Blue, FLIPR Membrane Potential Assay Kit (bulk), Product #R8034(BLUE), Molecular Devices, Sunnyvale, Calif., 94089, USA) was used. Cells with membrane potential dye were then incubated for 30 mins at room temperature prior to beginning the experiments.
To test the effects of compounds on TRPC3 activity, compounds were first diluted in 100% DMSO to 3× the final concentration to be used in the experiments. Typical dose-response experiments ranged from 10 μM (top concentration) to 0.5 nM (lowest concentration). Ten microliters of 5× compound in 0.5% DMSO were added to 40 μL of cells incubated with membrane potential dye. Compound addition was performed on a FLIPRTetra or a FLIPR 384 (MDS Analytical Technologies). After a 400 second incubation with compound, 12.5 μL of OAG was added at 5× the EC80 (typical EC80 for TRPC3=2 μM final). The OAG challenge is designed to measure the inhibitory activity of compounds on receptor-operated TRPC3 activation.
(§2) All data was normalized to low controls (buffer alone) or high controls (OAG EC100). Data was analyzed using an XC50 curve fitting module and reported as pIC50 or IC50 values. The values are averaged to determine a mean value, for a minimum of 2 experiments.

[2] = target: human TRPC6 ion channel (Homo sapiens (Human), UniProt Q9Y210); test: Inhibition of TRPC6 FLIPR Assay (membrane potential dye, OAG challenge); assay type: cell-based; details: TRPC6-HEK293 cells, OAG at EC80; most potent isolated isomer; mean of minimum 2 experiments
Chain of human TRPC6 ion channel (Q9Y210 whole entry): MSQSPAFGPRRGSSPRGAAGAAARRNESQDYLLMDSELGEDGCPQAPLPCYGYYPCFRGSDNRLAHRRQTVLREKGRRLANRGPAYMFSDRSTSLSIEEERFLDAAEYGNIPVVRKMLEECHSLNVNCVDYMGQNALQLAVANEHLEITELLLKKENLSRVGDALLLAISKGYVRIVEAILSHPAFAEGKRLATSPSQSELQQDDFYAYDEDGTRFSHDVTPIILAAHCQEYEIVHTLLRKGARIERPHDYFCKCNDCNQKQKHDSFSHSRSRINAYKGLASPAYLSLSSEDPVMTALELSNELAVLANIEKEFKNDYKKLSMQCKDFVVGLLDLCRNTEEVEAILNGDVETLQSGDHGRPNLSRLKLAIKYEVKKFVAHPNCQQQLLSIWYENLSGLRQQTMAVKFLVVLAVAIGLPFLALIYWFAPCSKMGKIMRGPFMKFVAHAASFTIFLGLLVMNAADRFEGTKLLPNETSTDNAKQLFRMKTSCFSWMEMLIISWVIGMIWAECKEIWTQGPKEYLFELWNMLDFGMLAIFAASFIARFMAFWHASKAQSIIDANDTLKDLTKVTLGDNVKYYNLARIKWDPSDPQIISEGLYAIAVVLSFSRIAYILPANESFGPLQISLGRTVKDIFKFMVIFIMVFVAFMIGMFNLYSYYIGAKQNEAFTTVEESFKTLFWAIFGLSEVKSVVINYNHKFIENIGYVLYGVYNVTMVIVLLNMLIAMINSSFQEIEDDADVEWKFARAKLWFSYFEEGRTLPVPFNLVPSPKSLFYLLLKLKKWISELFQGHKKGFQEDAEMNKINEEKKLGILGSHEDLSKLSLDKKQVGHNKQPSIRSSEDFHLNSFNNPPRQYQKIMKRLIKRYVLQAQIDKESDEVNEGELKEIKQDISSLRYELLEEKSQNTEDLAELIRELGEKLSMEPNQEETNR
Description: as §1
TRPC6-HEK293 was purchased from PerkinElmer (PerkinElmer, Product No.: AX-012-C), HEK293 cells were transfected using the pcDNA3.1(+)expression vector containing the coding sequence of the human TRPC6 ion channel. The coding sequence used is identical to coding sequence of GenBank NM_004621 with the exception of 2 synonym variations (t1683c and c2529t). The cells were grown in DMEM+10% fetal bovine serum (FBS) 0.5 mg/ml. Geneticin (ion channel expression selection) as culture medium.
TRPC6 cells were plated at 10K cells/well into 384-well polystyrene plates and then grown for 24 hs at 37° C. plus 5% CO2. After this time the media was aspirated using a Tecan plate washer and then replaced with 40 μL of dye loading buffer (130 mM NaCl, 5 mM KCl, 0.15 mM CaCl2, 1 mM MgCl2, 20 mM HEPES ((4-(2-hydroxyethyl)-1-piperazineethanesulfonic acid)), 5 mM NaHCO3). For TRPC6, a final concentration of 0.5× is used. Cells with membrane potential dye were then incubated for 30 mins at room temperature prior to beginning the experiments.
To test the effects of compounds on TRPC6 activity, compounds were first diluted in 100% DMSO to 3× the final concentration to be used in the experiments. Typical dose-response experiments ranged from 10 μM (top concentration) to 0.5 nM (lowest concentration). Ten microliters of […] compound in 0.5% DMSO were added to 40 μL of cells incubated with membrane potential dye. Compound addition was performed on a FLIPRTetra or a FLIPR 384 (MDS Analytical Technologies, Molecular Devices, Sunnyvale, Calif., 94089, USA). After a 400 second incubation with compound, […] OAG (1-oleoyl-2-acetyl-sn-glycerol (OAG), Sigma, Gillingham, Dorset, SP8 4XT Cat #O6754-10 MG) was added at 5× the EC80 (typical EC80 for TRPC6=3 μM final). The OAG challenge is designed to measure the inhibitory activity of compounds on receptor-operated TRPC6 activation.
as §2

Chain of human TRPC3 ion channel (Q13507 whole entry): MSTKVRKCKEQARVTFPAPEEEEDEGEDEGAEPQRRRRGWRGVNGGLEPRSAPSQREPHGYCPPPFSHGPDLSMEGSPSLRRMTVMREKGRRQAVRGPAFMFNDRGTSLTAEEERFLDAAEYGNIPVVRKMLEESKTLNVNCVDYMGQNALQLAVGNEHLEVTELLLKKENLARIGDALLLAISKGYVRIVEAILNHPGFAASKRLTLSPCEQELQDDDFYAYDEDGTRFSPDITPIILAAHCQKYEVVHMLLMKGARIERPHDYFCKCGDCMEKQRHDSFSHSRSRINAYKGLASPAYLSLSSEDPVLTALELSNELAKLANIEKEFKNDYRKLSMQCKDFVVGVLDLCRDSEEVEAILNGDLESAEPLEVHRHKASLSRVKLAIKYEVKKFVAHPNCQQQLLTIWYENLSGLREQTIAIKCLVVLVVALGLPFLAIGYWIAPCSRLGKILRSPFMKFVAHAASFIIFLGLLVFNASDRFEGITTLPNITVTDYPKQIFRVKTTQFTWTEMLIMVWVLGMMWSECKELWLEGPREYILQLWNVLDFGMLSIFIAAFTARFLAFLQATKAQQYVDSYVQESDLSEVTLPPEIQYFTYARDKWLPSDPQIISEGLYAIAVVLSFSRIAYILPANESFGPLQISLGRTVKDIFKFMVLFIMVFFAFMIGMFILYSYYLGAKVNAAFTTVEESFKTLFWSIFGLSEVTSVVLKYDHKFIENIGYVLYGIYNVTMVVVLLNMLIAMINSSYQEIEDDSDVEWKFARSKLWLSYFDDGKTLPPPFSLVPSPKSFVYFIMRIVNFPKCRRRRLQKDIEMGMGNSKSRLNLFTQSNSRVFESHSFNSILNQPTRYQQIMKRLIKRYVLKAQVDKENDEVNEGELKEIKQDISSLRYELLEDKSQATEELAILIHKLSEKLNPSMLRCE

Structure (SMILES): N#Cc1ccn(C2CC(c3ccc(F)cc3)CC2N2CCCC(N)C2)n1 (centres unmarked) [Example 3, 1-[2-(3-amino-1-piperidyl)-4-(4-fluorophenyl)cyclopentyl]pyrazole-3-carbonitrile]
- IC50 [1]: 46.4 nM
- IC50 [2]: < 19.9 nM

Structure (SMILES): NC1CCCN(C2CC(c3ccc(F)cc3)CC2Oc2nnccc2Cl)C1 (centres unmarked) [Example 23, 1-[2-(4-chloropyridazin-3-yl)oxy-4-(4-fluorophenyl)cyclopentyl]piperidin-3-amine]
- IC50 [1]: 11.3 nM
- IC50 [2]: 6.56 nM

Structure (SMILES): N#Cc1ccccc1OC1CC(c2ccccc2)CC1N1CCCC(N)C1 (centres unmarked) [Example 20, 2-[2-(3-amino-1-piperidyl)-4-phenyl-cyclopentoxy]benzonitrile]
- IC50 [1]: 38.8 nM
- IC50 [2]: 14.1 nM

Structure (SMILES): N#Cc1cnn(C2CC(c3ccc(F)cc3)CC2N2CC(N)CC(F)C2)c1 (centres unmarked) [Example 6, 1-[2-(3-amino-5-fluoro-1-piperidyl)-4-(4-fluorophenyl)cyclopentyl]pyrazole-4-carbonitrile]
- IC50 [1]: 6.22 nM
- IC50 [2]: 4.06 nM

Structure (SMILES): N#Cc1ccc(OC2CC(c3ccccc3)CC2N2CCCC(N)C2)c(Cl)c1 (centres unmarked) [Example 21, 4-[2-(3-amino-1-piperidyl)-4-phenyl-cyclopentoxy]-3-chloro-benzonitrile]
- IC50 [1]: 72.3 nM
- IC50 [2]: 17.4 nM

Structure (SMILES): N#Cc1cnn(C2CC(c3ccc(F)cc3)CC2N2CCCC(N)C2)c1 (centres unmarked) [Example 2, 1-[2-(3-amino-1-piperidyl)-4-(4-fluorophenyl)cyclopentyl]pyrazole-4-carbonitrile]
- IC50 [1]: 8.31 nM
- IC50 [2]: 7.97 nM

Structure (SMILES): N[C@@H]1C[C@@H](F)CN([C@@H]2C[C@H](c3ccc(F)cc3)C[C@H]2n2cncn2)C1 [Example 10, (3R,5R)-5-fluoro-1-[(1R,2R,4S)-4-(4-fluorophenyl)-2-(1,2,4-triazol-1-yl)cyclopentyl]piperidin-3-amine]
- IC50 [1]: 16 nM
- IC50 [2]: 29.8 nM

Structure (SMILES): N#Cc1ccc(OC2CC(c3ccc(F)cc3)CC2N2CC(N)CC(F)C2)nn1 (centres unmarked) [Example 24, 6-[2-(3-amino-5-fluoro-1-piperidyl)-4-(4-fluorophenyl)cyclopentoxy]pyridazine-3-carbonitrile]
- IC50 [1]: 7.2 nM
- IC50 [2]: > 11.8 nM

Structure (SMILES): N#Cc1cnc(OC2CC(c3ccc(F)cc3)CC2N2CCCC(N)C2)nc1 (centres unmarked) [Example 30, 2-[2-(3-amino-1-piperidyl)-4-(4-fluorophenyl)cyclopentoxy]pyrimidine-5-carbonitrile]
- IC50 [1]: 24 nM
- IC50 [2]: 11.5 nM

Structure (SMILES): N#Cc1cn(C2CC(c3ccc(F)cc3)CC2N2CCCC(N)C2)nn1 (centres unmarked) [Example 5, 1-[2-(3-amino-1-piperidyl)-4-(4-fluorophenyl)cyclopentyl]triazole-4-carbonitrile]
- IC50 [1]: 4.28 nM
- IC50 [2]: 3.78 nM

Structure (SMILES): N#Cc1ccc(OC2CC(c3cccc(F)c3)CC2N2CCCC(N)C2)c(Cl)c1 (centres unmarked) [Example 16, 4-[2-(3-amino-1-piperidyl)-4-(3-fluorophenyl)cyclopentoxy]-3-chloro-benzonitrile]
- IC50 [1]: 69.5 nM
- IC50 [2]: 19.3 nM

Structure (SMILES): N#Cc1ccc(OC2CC(c3ccc(F)cc3)CC2N2CCC(F)(F)C(N)C2)cc1 (centres unmarked) [Example 17, 4-[2-(3-amino-4,4-difluoro-1-piperidyl)-4-(4-fluorophenyl)cyclopentoxy]benzonitrile]
- IC50 [1]: 46.1 nM
- IC50 [2]: 20.7 nM

Structure (SMILES): N#Cc1ccc(OC2CC(c3ccc(F)cc3)CC2N2CCC[C@@H](N)C2)nc1 (single isomer, unassigned) [Example 26]
- IC50 [1]: 25.5 nM
- IC50 [2]: 9.51 nM

Structure (SMILES): NC1CCCN(C2CC(c3ccc(F)cc3)CC2n2cccn2)C1 (centres unmarked) [Example 8, 1-[4-(4-fluorophenyl)-2-pyrazol-1-yl-cyclopentyl]piperidin-3-amine]
- IC50 [1]: 7.97 nM
- IC50 [2]: 2.8 nM

Structure (SMILES): NC1CC(F)CN(C2CC(c3ccc(F)cc3)CC2n2cccn2)C1 (centres unmarked) [Example 9, 5-fluoro-1-[4-(4-fluorophenyl)-2-pyrazol-1-yl-cyclopentyl]piperidin-3-amine]
- IC50 [1]: 6.64 nM
- IC50 [2]: 3.4 nM

Structure (SMILES): N#Cc1ccn(C2CC(c3ccc(F)cc3)CC2N2CCCC(N)C2)c1 (centres unmarked) [Example 4, 1-[2-(3-amino-1-piperidyl)-4-(4-fluorophenyl)cyclopentyl]pyrrole-3-carbonitrile]
- IC50 [1]: 5.39 nM
- IC50 [2]: 5.31 nM
